# Data published in patent US12643892B2, “Pyridazinone compounds for the treatment of neuromuscular diseases” (Edgewise Therapeutics, Inc., priority 2020, dated 2026).
# Biological target: Skeletal Myofibril ATPase (Rabbit Psoas myofibrils)
# Assay: Skeletal Myofibril ATPase Assay
# Type: biochemical
# Details: PK/LDH-coupled NADH absorbance at 340 nm
# Protocol: Overview: Myosin ATPase activity was assessed by using a coupled reaction system, in which ADP generated by the myosin ATPase function was coupled to the disappearance of NADH through the pyruvate kinase/lactate dehydrogenase (PK-LDH) system. Myosin ATPase activity produces ADP, which was used as a substrate for PK to produce pyruvate and regenerate ATP. The pyruvate was then used as a substrate by LDH to oxidize NADH to NAD+. The rate of the reaction was monitored through the time-dependent disappearance of NADH using absorbance at 340 nm. Inhibition of ATPase activity by the assayed compounds was indicated by a reduced rate of NADH loss, relative to vehicle-treated controls, over the experimental time window. To assess the selectivity of the assayed compounds for skeletal myofibrils, the compounds were counter-screened in cardiac myofibrils.
# Materials: The following stock solutions and reagents were used in the Skeletal Myofibril ATPase Assay:
# Stock Solutions of pCa buffer. Combine PIPES, CaCl2, and EGTA solutions with 70 mL of water. Adjust pH to 7.0 and bring final volume to 100 mL.
# Buffer A & Buffer B. Buffers were stored on ice until use.
# Skeletal Myofibril ATPase Assay Procedure: BSA, ATP, NADH, PEP, and DTT solutions were thawed at room temperature, then transferred to ice. Pellet-frozen myofibrils (approximately twice the required volume) were transferred into a sufficiently large tube and capped. Myofibrils were thawed by rolling in a water bath for approximately 15 min at room temperature and cooled on ice. Buffers A and B were prepared by adjusting volumes as necessary for required number of wells and stored on ice. 0.5 μL of the compounds to be assayed were added into wells of a 384-well plate. Buffers A and B were mixed by inversion immediately prior to use, then 25 μL of each was dispensed using a Multidrop dispenser (Buffer A first, then Buffer B). The absorbance within the wells was measured at 340 nm, using a kinetic protocol in which the wells are read every 1.5-2 min for 1 h. The reaction rate was qualitatively assessed by subtracting the minimum absorbance value from the maximum value for each well, using either the SoftMax Pro plate reader software or a spreadsheet program such as Excel. Using GraphPad Prism 8.0, the data was normalized, with 100% activity defined as the absorbance change in the 1% DMSO vehicle wells and 0% assigned to no change in absorbance over the course of the experiment. The normalized data were fit to a variable-slope four-parameter logistic model, constraining the bottom to be 0 or greater. Compounds of Table 1 to 3 were tested and results of the assay appear in Table 4 herein. A=IC50 is less than or equal to 10 μM; B=IC50 is greater than 10 μM and less than 100 μM; C=IC50 is greater than 100 μM.
row,IC50 [µM],SMILES
1,> 120,"O=c1ccc(-c2nc(-c3ccsc3)no2)cn1Cc1ccccc1C(F)(F)F [Compound 115, 5-(3-(thiophen-3-yl)-1,2,4-oxadiazol-5-yl)-1-(2-(trifluoromethyl)benzyl)pyridin-2(1H)-one]"
2,≤ 10,"CCNC(=O)Cn1nc(-c2nc(-c3cccc(OC(F)(F)F)c3)no2)ccc1=O [Compound 6, N-ethyl-2-(6-oxo-3-(3-(3-(trifluoromethoxy)phenyl)-1,2,4-oxadiazol-5-yl)pyridazm-1(6H)-yl)acetamide]"
3,10 to 100,"O=c1ccc(-c2nc(-c3ccccc3Cl)no2)cn1Cc1cccnc1 [Compound 110, 5-(3-(2-chlorophenyl)-1,2,4-oxadiazol-5-yl)-1-(pyridin-3-ylmethyl)pyridin-2(1H)-one]"
4,> 100,"O=C(Cn1nc(-c2cccs2)ccc1=O)Nc1ccc2c(c1)OCO2 [Compound 47, N-(benzo[d][1,3]dioxol-5-yl)-2-(6-oxo-3-(thiophen-2-yl)pyridazin-1(6H)-yl)acetamide]"
5,≤ 10,"CCNC(=O)Cn1nc(-c2nnc(-c3cccc(Cl)c3)s2)ccc1=O [Compound 24, 2-(3-(5-(3-chlorophenyl)-1,3,4-thiadiazol-2-yl)-6-oxopyridazin-1(6H)-yl)-N-ethylacetamide]"
6,10 to 100,"Cc1ccc(-c2ccc(=O)n(CC(=O)N(C)c3ccccc3)n2)s1 [Compound 38, N-methyl-2-(3-(5-methylthiophen-2-yl)-6-oxopyridazin-1(6H)-yl)-N -phenylacetamide]"
7,≤ 10,"CCNC(=O)Cn1nc(-c2ncc(-c3cccc(Cl)c3)s2)ccc1=O [Compound 25, 2-(3-(5-(3-chlorophenyl)thiazol-2-yl)-6-oxopyridazin-1(6H)-yl)-N-ethylacetamide]"
8,> 120,"O=c1ccc(-c2nc(-c3ccc(Cl)cc3)no2)cn1Cc1cccnc1 [Compound 125, 5-(3-(4-chlorophenyl)-1,2,4-oxadiazol-5-yl)-1-(pyridin-3-ylmethyl)pyridin-2(1H)-one]"
9,10 to 100,"O=c1ccc(-c2nc(-c3cccnc3)no2)nn1Cc1ccccc1F [Compound 68, 2-(2-fluorobenzyl)-6-(3-(pyridin-3-yl)-1,2,4-oxadiazol-5-yl)pyridazin-3(2H)-one]"
10,≤ 10,"Cc1cccc(-c2noc(-c3ccc(=O)n(Cc4ccc(Cl)nc4)c3)n2)c1 [Compound 87, 1-((6-chloropyridin-3-yl)methyl)-5-(3-(m-tolyl)-1,2,4-oxadiazol-5-yl)pyridin-2(1H)-one]"
11,> 120,"O=c1ccc(-c2nc(-c3ccccc3Cl)no2)cn1Cc1noc(C2CC2)n1 [Compound 113, 5-(3-(2-chlorophenyl)-1,2,4-oxadiazol-5-yl)-1-((5-cyclopropyl-1,2,4-oxadiazol-3-yl)methyl)pyridin-2(lH)-one]"
12,> 120,"O=c1ccc(-c2nc(C3CC3)no2)cn1Cc1c(F)cccc1Cl [Compound 123, 1-(2-chloro-6-fluorobenzyl)-5-(3-cyclopropyl-1,2,4-oxadiazol-5-yl)pyridin-2(1H)-one]"
13,≤ 10,"COc1ccc(Cn2cc(-c3nc(-c4cccc(C)c4)no3)ccc2=O)cn1 [Compound 88, 1-((6-methoxypyridin-3-yl)methyl)-5-(3-(m-tolyl)-1,2,4-oxadiazol-5-yl)pyridin-2(1H)-one]"
14,> 120,"O=c1ccc(-c2nc(-c3ccc(Cl)cc3)no2)cn1Cc1ccc(Cl)c(Cl)c1 [Compound 124, 5-(3-(4-chlorophenyl)-1,2,4-oxadiazol-5-yl)-1-(3,4-dichlorobenzyl)pyridm-2(1H)-one]"
15,≤ 10,"CCNC(=O)Cn1nc(-c2nc(-c3cccc(C(F)(F)F)c3)no2)ccc1=O [Compound 11, N-ethyl-2-(6-oxo-3-(3-(3-(trifluoromethyl)phenyl)-1,2,4-oxadiazol-5-yl)pyridazin-1(6H)-yl)acetamide]"
16,≤ 10,"CCNC(=O)Cn1nc(-c2nc(-c3ccccc3)no2)ccc1=O [Compound 16, N-ethyl-2-(6-oxo-3-(3-phenyl-1,2,4-oxadiazol-5-yl)pyridazin-1(6H)-yl)acetamide]"
17,10 to 100,"Cc1ccc(-c2ccc(=O)n(CC(=O)NC3CCCC3)n2)s1 [Compound 39, N-cyclopentyl-2-(3-(5-methylthiophen-2-yl)-6-oxopyridazin-1(6H)-yl)acetamide]"
18,≤ 10,"O=C(Cn1nc(-c2nnc(-c3cncc(Cl)c3)s2)ccc1=O)NC1CCC1 [Compound 20, 2-(3-(5-(5-chloropyridin-3-yl)-1,3,4-thiadiazol-2-yl)-6-oxopyridazin-1(6H)-yl)-N-cyclobutylacetamide]"

row,IC50 [µM],SMILES
1,10 to 100,"Cn1cc(-c2ccc(=O)n(CC(=O)NCc3ccccc3Cl)n2)cn1 [Compound 54, N-(2-chlorobenzyl)-2-(3-(1-methyl-1H-pyrazol-4-yl)-6-oxopyridazin-1(6H)-yl)acetamide]"
2,≤ 10,"O=c1ccc(-c2nc(-c3cccc(F)c3)no2)cn1Cc1cncnc1 [Compound 106, 5-(3-(3-fluorophenyl)-1,2,4-oxadiazol-5-yl)-1-(pyrimidin-5-ylmethyl)pyridin-2(1H)-one]"
3,> 100,"Cn1cnc(-c2ccc(=O)n(CC(=O)NCc3ccccc3Cl)n2)c1 [Compound 55, N-(2-chlorobenzyl)-2-(3-(1-methyl-1H-imidazol-4-yl)-6-oxopyridazin-1(6H)-yl)acetamide]"
4,> 100,"O=C(Cn1nc(-c2ccco2)ccc1=O)NCc1ccccc1F [Compound 53, N-(2-fluorobenzyl)-2-(3-(furan-2-yl)-6-oxopyridazin-1(6H)-yl)acetamide]"
5,> 120,"O=c1ccc(-c2nc(-c3ccncc3)no2)cn1Cc1ccccc1C(F)(F)F [Compound 120, 5-(3-(pyridin-4-yl)-1,2,4-oxadiazol-5-yl)-1-(2-(trifluoromethyl)benzyl)pyridin-2(1H)-one]"
6,10 to 100,"CCCn1nc(-c2nc(COc3ccccc3)no2)ccc1=O [Compound 77, 6-(3-(phenoxymethyl)-1,2,4-oxadiazol-5-yl)-2-propylpyridazin-3(2H)-one]"
7,> 120,"O=c1ccc(-c2nc(-c3ccccc3F)no2)cn1Cc1cccnc1 [Compound 111, 5-(3-(2-fluorophenyl)-1,2,4-oxadiazol-5-yl)-1-(pyridin-3-ylmethyl)pyridin-2(1H)-one]"
8,≤ 10,"CCNC(=O)Cn1nc(-c2noc(-c3cccc(Cl)c3)n2)ccc1=O [Compound 31, 2-(3-(5-(3-chlorophenyl)-1,2,4-oxadiazol-3-yl)-6-oxopyridazin-1(6H)-yl)-N-ethylacetamide]"
9,≤ 10,"O=c1ccc(-c2nc(-c3cccc(Cl)c3)no2)nn1Cc1cncc(F)c1 [Compound 64, 6-(3-(3-chlorophenyl)-1,2,4-oxadiazol-5-yl)-2-((5-fluoropyridin-3-yl)methyl)pyridazin-3(2H)-one]"
10,10 to 100,"Cc1noc(-c2ccc(=O)n(Cc3ccc(F)cc3)n2)n1 [Compound 69, 2-(4-fluorobenzyl)-6-(3-methyl-1,2,4-oxadiazol-5-yl)pyridazin-3(2H)-one]"
11,> 120,"O=c1ccc(-c2nc(-c3ccncc3)no2)cn1Cc1ccc(Cl)cc1 [Compound 119, 1-(4-chlorobenzyl)-5-(3-(pyridin-4-yl)-1,2,4-oxadiazol-5-yl)pyridin-2(1H)-one]"
12,≤ 10,"O=c1ccc(-c2nc(-c3ccc(F)cc3)no2)cn1Cc1cccnc1 [Compound 104, 5-(3-(4-fluorophenyl)-1,2,4-oxadiazol-5-yl)-1-(pyridin-3-ylmethyl)pyridin-2(1H)-one]"
13,≤ 10,"Cn1ccc2c(NC(=O)Cn3nc(-c4cccs4)ccc3=O)cccc21 [Compound 83, N-(1-methyl-1H-indol-4-yl)-2-(6-oxo-3-(thiophen-2-yl)pyridazin-1(6H)-yl)acetamide]"
14,≤ 10,"CCNC(=O)Cn1nc(-c2nc(-c3cc(F)cc(F)c3)no2)ccc1=O [Compound 9, 2-(3-(3-(3,5-difluorophenyl)-1,2,4-oxadiazol-5-yl)-6-oxopyridazin-1(6H)-yl)-N-ethylacetamide]"
15,≤ 10,"CCNC(=O)Cn1nc(-c2nc(-c3cncc(C(F)(F)F)c3)no2)ccc1=O [Compound 10, N-ethyl-2-(6-oxo-3-(3-(5-(trifluoromethyl)pyridin-3-yl)-1,2,4-oxadiazol-5-yl)pyridazin-1(6H)-yl)acetamide]"
16,≤ 10,"CCNC(=O)Cn1nc(-c2nc(-c3ccc(F)c(F)c3)no2)ccc1=O [Compound 8, 2-(3-(3-(3,4-difluorophenyl)-1,2,4-oxadiazol-5-yl)-6-oxopyridazin-1(6H)-yl)-N-ethylacetamide]"
17,> 100,"O=c1ccc(-c2cccs2)nn1C/C=C/c1ccccc1 [Compound 62, 2-cinnamyl-6-(thiophen-2-yl)pyridazin-3(2H)-one]"
